Measured values published in article PMC10298530, “Synthesis and Anticancer Activity of A-Ring-Modified Derivatives of Dihydrobetulin” (International Journal of Molecular Sciences, 2023).
Values joined by “and” are separate entries in the source; they are usually repeats but may differ in a detail not shown here. Identical values can stand only once. Like-named read-outs stand apart in the source and are kept apart here.

Columns and labels:
HBL-100/Dox cells [1] = experiment: Cell cycle analysis (DAPI, flow cytometry), HBL-100/Dox; format: cell-based, human; conditions: HBL-100/Dox (resistant) cells, 12-24 h, IC50
Protocol: (§1) The cells were trypsinized and rinsed with the growth medium. Then, the cells were harvested by centrifugation at 500× g for 3 min, and the supernatant was discarded. The cells were washed with PBS (PanEco, Moscow, Russia) twice and centrifuged under similar conditions. The cells were resuspended in 500 μL of PBS, put into centrifuge tubes and fixed by adding 4.5 mL of 70% ethanol dropwise (on ice). The samples were fixed at 4 °C. Overnight, the fixed cells were centrifugally collected (1000× g, 4 °C, 5 min) and washed again with PBS. The cells were finally resuspended in DAPI with 0.1% Triton X-100 in PBS solution (10 μg/mL, Sigma–Aldrich, St. Louis, MO, USA), and stained for 30 min at room temperature in darkness. For each sample, at least 50,000 cells were analyzed using the CytoFlex S flow cytometer (Beckman Coulter, Brea, CA, USA). Cell cycle populations were quantified from DNA histograms with the FlowJo software (ver. X 10.0.7r2, FlowJo Software, San Jose, CA, USA).

MS = experiment: MTT cell viability assay, MS; format: cell-based, human; conditions: Homo sapiens;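 on IC50 (mean ± SD): MS is a melanocyte cell line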
Source text: (§2) Blokhin National Medical Research Center of Oncology (the Ministry of Health of the Russian Federation, Moscow).

PC-3 = experiment: MTT cell viability assay, PC-3; format: cell-based, human; conditions: Homo sapiens; PC-3, MTT, 72 h of treatment; read-out: IC50 Values (Mean ± SD)
Source text: as §2

HCT116 = experiment: MTT cell viability assay, HCT116; format: cell-based, human; conditions: Homo sapiens, HCT-116; HCT116, MTT, 72 h of treatment; read-out: IC50 Values (Mean ± SD)
Source text: as §2

HBL-100 cells [2] = experiment: Cell cycle analysis (DAPI, flow cytometry), HBL-100; format: cell-based, human; conditions: for Cell cycle of HBL-100, S-phase: dose = IC50
Protocol: as §1

HBL-100 cells [3] = experiment: Annexin V-FITC/PI assay, HBL-100; format: cell-based, human; conditions: 16 h, dose IC50
Protocol: (§3) Briefly, after exposing the cells to the tested and control compounds for 16 h, the cells were detached with accutase (HiMedia Laboratories, Maharashtra, India) and washed with cold PBS. Then, the cells were re-suspended in 100 μL of 1 × Binding Buffer at concentration 1 × 10^6 cells/mL and incubated with 5 μL Annexin V-FITC and 5 μL propidium iodide (PI) for 15 min at room temperature in darkness. After incubation, 400 μL of 1 × Binding Buffer was added to each tube. The samples were analyzed by flow cytometry (CytoFlex S, Beckman Coulter, Brea, CA, USA) within 1 h of staining, and the findings were analyzed using a trial version of the Kaluza software (Beckman Coulter, Brea, CA, USA).

MCF-7 = experiment: MTT cell viability assay, MCF-7; format: cell-based, human; conditions: Homo sapiens, MCF7
Source text: as §2

HBL-100/Dox cells [4] = experiment: Combined action of compounds, MTT assay on HBL-100/Dox cells; format: cell-based, human; conditions: 72 h, with 30 μM verapamil
Source text: The results were expressed pictorially using Prism 6.0 (GraphPad Software, Boston, MA, USA).

HBL-100 = experiment: MTT cell viability assay, HBL-100; format: cell-based, human; conditions: Homo sapiens
Protocol: (§4) The cells were cultured in a humidified CO2 incubator (model 460-CE; Thermo Fisher Scientific, Waltham, MA, USA) at +37 °C and 5% CO2.
(§5) The percentage of the viable cells was calculated according to the following equation: cell viability (%) = 100 × (mean absorbance in the treatment group/mean absorbance in the control group). The results were expressed pictorially using Prism 6.0 (GraphPad Software, Boston, MA, USA).

HEK293 = experiment: MTT cell viability assay, HEK293; format: cell-based; conditions: Homo sapiens
Source text: as §2

HEpG2 = experiment: MTT cell viability assay, HEpG2; format: cell-based, human; conditions: Homo sapiens
Source text: as §2

HBL-100/Dox cells [5] = experiment: Annexin V-FITC/PI assay, HBL-100/Dox; format: cell-based, human; conditions: 16 h, dose IC50
Protocol: as §3

RD TE32 = experiment: MTT cell viability assay, RD TE32; format: cell-based, human; conditions: Homo sapiens
Source text: as §2

HBL-100 cells [6] = experiment: Hoechst 33342 / TMRE fluorescent microscopy, HBL-100; format: cell-based, human; conditions: Hoechst 33342, 16 h, IC50 values (MK 1.0 µM)
Protocol: (§6) The DNA marker, termed Hoechst 33342 Ready Flow Reagent, was used as a stock solution (Invitrogen, ThermoFisher Scientific, USA). The mitochondrial marker, LumiTracker Mito TMRE (tetramethylrhodamine, ethyl ester; Lumiprobe, Moscow, Russia), was dissolved in DMSO as 1.0 mM stock solution. The marker of reactive oxygen species, H2DCFDA (Lumiprobe, Moscow, Russia), was dissolved in DMSO as 100.0 μM stock solution. After incubation, the cells were incubated with FBS-free culture medium containing the dye mixture of Hoechst 33342 (final concentration 1.0 μM) and LumiTracker Mito TMRE (final concentration 1.0 μM), or H2DCFDA dye taken alone (final concentration 1.0 μM), for 30 min at 37 °C in darkness. Fluorescence, at 420 nm (Hoechst 33342), at 510 nm (TMRE), and at 575 nm (H2DCFDA), of the test cultures (including controls) was analyzed immediately using a fluorescence microscope CKX 53 (Olympus, Tokyo, Japan). The TMRE fluorescence intensity was quantified using Fiji (ImageJ).

HBL-100/Dox cells [7] = experiment: Hoechst 33342 / TMRE fluorescent microscopy, HBL-100/Dox; format: cell-based, human; conditions: Hoechst 33342, 16 h, IC50 values (MK 1.8 µM)
Protocol: as §6

HBL-100/Dox = experiment: MTT cell viability assay, HBL-100/Dox; format: cell-based, human; conditions: Homo sapiens
Protocol: as §4, §5

**Q.** Which “effect on cell cycle progression” value (HBL-100/Dox cells [1]) does the source give for `COc1cccc2c1C(=O)c1c(O)c3c(c(O)c1C2=O)C[C@@](O)(C(=O)CO)C[C@@H]3O[C@H]1C[C@H](N)[C@H](O)[C@H](C)O1` [Dox, doxorubicin, reference compound] here?
**A.** The value was “induced the S phase arrest”.

**Q.** What about the IC50 (MS; MS, MTT, 72 h of treatment, read-out: IC50 Values (Mean ± SD)) of the same compound?
**A.** Its IC50 is 1300 ± 200 nM.

**Q.** And the IC50 (MS; Table S1, MS, read-out: IC50 (mean ± SD))?
**A.** The IC50 was 1290 ± 160 nM.

**Q.** And the IC50 (PC-3)?
**A.** The IC50 was 12.6 ± 0.2 µM.

**Q.** And the IC50 (HCT116)?
**A.** The IC50 was 1300 ± 300 nM.

**Q.** What about the “Cell cycle of HBL-100, S-phase” value (HBL-100 cells [2]; 12 h) of the same compound?
**A.** The value was 48.19±0.09%.

**Q.** What about the “Cell cycle of HBL-100, S-phase” value (HBL-100 cells [2]; 13 h) of the same compound?
**A.** The value was 46.86±0.22%.

**Q.** What about the “Cell cycle of HBL-100, S-phase” value (HBL-100 cells [2]; 14 h) of the same compound?
**A.** The value was 48.25±0.51%.

**Q.** What about the “Cell cycle of HBL-100, S-phase” value (HBL-100 cells [2]; 15 h) of the same compound?
**A.** The value was 57.27±0.14%.

**Q.** And the “Cell cycle of HBL-100, S-phase” value (HBL-100 cells [2]; 16 h)?
**A.** The value was 61.28±2.01%.

**Q.** What about the “Cell cycle of HBL-100, S-phase” value (HBL-100 cells [2]; 17 h) of the same compound?
**A.** Its value is 56.17±1.64%.

**Q.** What about the “Cell cycle of HBL-100, S-phase” value (HBL-100 cells [2]; 18 h) of the same compound?
**A.** The value was 55.42±0.92%.

**Q.** What about the “Cell cycle of HBL-100, S-phase” value (HBL-100 cells [2]; 24 h) of the same compound?
**A.** The value was 76.69±0.75%.

**Q.** What about the “effect on cell cycle progression” value (HBL-100 cells [2]; HBL-100 (parental) cells, 12-24 h, IC50) of the same compound?
**A.** The value was “induced the S phase arrest”.

**Q.** And the Dead cells (HBL-100 cells [3])?
**A.** Its Dead cells is 1.80±0.31%.

**Q.** What about the Early apoptotic cells (HBL-100 cells [3]) of the same compound?
**A.** Its Early apoptotic cells is 12.35 ± 0.42%.

**Q.** And the Late apoptotic cells (HBL-100 cells [3])?
**A.** Its Late apoptotic cells is 1.93±0.29%.

**Q.** And the Viable cells (HBL-100 cells [3])?
**A.** The Viable cells was 83.89±0.82%.

**Q.** What about the IC50 (MCF-7; MCF-7, MTT, 72 h of treatment, read-out: IC50 Values (Mean ± SD)) of the same compound?
**A.** Its IC50 is 400 ± 100 nM.

**Q.** And the IC50 (MCF-7; Table S1, MCF-7, read-out: IC50 (mean ± SD))?
**A.** Its IC50 is 380 ± 90 nM.

**Q.** What about the “diminution of IC50 value of Dox in combination with verapamil” value (HBL-100/Dox cells [4]) of the same compound?
**A.** Its value is 37 fold.

**Q.** What about the IC50 (HBL-100; HBL-100, MTT, 72 h of treatment, read-out: IC50 Values (Mean ± SD)) of the same compound?
**A.** The IC50 was 400 ± 100 nM.

**Q.** What about the IC50 (HBL-100; Table S1, HBL-100, read-out: IC50 (mean ± SD)) of the same compound?
**A.** The IC50 was 350 ± 30 nM.

**Q.** And the IC50 (HEK293; HEK293, MTT, 72 h of treatment, read-out: IC50 Values (Mean ± SD))?
**A.** Its IC50 is 400 ± 100 nM.

**Q.** What about the IC50 (HEK293; Table S1, HEK293, read-out: IC50 (mean ± SD)) of the same compound?
**A.** The IC50 was 440 ± 40 nM.

**Q.** And the IC50 (HEpG2; HEpG2, MTT, 72 h of treatment, read-out: IC50 Values (Mean ± SD))?
**A.** The IC50 was 1800 ± 300 nM.

**Q.** And the IC50 (HEpG2; Table S1, HEpG2, read-out: IC50 (mean ± SD))?
**A.** Its IC50 is 1780 ± 300 nM.

**Q.** What about the Dead cells (HBL-100/Dox cells [5]) of the same compound?
**A.** Its Dead cells is 0.84±0.24%.

**Q.** What about the Early apoptotic cells (HBL-100/Dox cells [5]) of the same compound?
**A.** Its Early apoptotic cells is 2.56 ± 0.36% and 2.56±0.37%.

**Q.** What about the Late apoptotic cells (HBL-100/Dox cells [5]) of the same compound?
**A.** The Late apoptotic cells was 0.82±0.55%.

**Q.** What about the Viable cells (HBL-100/Dox cells [5]) of the same compound?
**A.** Its Viable cells is 95.74±1.10%.

**Q.** What about the IC50 (RD TE32; RD TE32, MTT, 72 h of treatment, read-out: IC50 Values (Mean ± SD)) of the same compound?
**A.** The IC50 was 1300 ± 100 nM.

**Q.** And the IC50 (RD TE32; Table S1, RD TE32, read-out: IC50 (mean ± SD))?
**A.** Its IC50 is 1270 ± 30 nM.

**Q.** And the “number of cells with nuclear morphology changes” value (HBL-100 cells [6])?
**A.** The value was 25.2%.

**Q.** What about the “number of cells with nuclear morphology changes” value (HBL-100/Dox cells [7]) of the same compound?
**A.** The value was 9.9%.

**Q.** What about the IC50 (HBL-100/Dox; HBL-100, 72 h, read-out: IC50 Values (Mean ± SD)) of the same compound?
**A.** The IC50 was 29.6 ± 0.9 µM.

**Q.** And the IC50 (HBL-100/Dox; HBL-100, read-out: IC50 (mean ± SD))?
**A.** The IC50 was 29.6 ± 0.94 µM.
